Columns and labels:
[1] = biological target: Histone-lysine N-methyltransferase KMT5B (Homo sapiens, UniProt Q4FZB7); test: Inhibition of recombinant human 6His-(Tev)-G-SUV420H1 (69 to 335 residues) using Biotin-tagged H4K20me1 and [3H-SAM] as substrate incubated for 2 hrs by scintillation proximity assay
[2] = biological target: Histone-lysine N-methyltransferase KMT5C (Homo sapiens, UniProt Q86Y97); test: Inhibition of human SUV420H2 using Biotin-tagged H4K20me1 and [3H-SAM] as substrate incubated for 2 hrs by scintillation proximity assay
Sequence of Histone-lysine N-methyltransferase KMT5C (Q86Y97 whole entry): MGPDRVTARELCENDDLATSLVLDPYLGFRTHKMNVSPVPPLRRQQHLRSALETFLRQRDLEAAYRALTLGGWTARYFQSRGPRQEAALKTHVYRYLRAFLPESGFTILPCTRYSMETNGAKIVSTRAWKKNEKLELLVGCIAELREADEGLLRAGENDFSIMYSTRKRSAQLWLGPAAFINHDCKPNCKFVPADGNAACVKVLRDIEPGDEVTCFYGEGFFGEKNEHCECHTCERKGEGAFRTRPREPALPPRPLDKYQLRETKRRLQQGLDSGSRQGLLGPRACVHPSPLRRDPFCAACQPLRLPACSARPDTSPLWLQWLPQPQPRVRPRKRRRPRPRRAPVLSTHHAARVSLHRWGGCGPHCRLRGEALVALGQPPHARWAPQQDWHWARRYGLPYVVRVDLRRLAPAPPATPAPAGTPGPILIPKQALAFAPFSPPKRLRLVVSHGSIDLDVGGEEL

B-cell [3] = test: Induction of DNA repair in mouse B cells assessed as change in ability of splenic cells to switch from IgM to IgG1 incubated for 2 days at 1 uM in the presence of LPS by flow cytometry analysis (Rvb=9.59%); format: functional; details: time 2 day
B-cell [4] = test: Induction of DNA repair in mouse B cells assessed as change in ability of splenic cells to switch from IgM to IgG1 at 10 uM incubated for 2 days in the presence of LPS by flow cytometry analysis (Rvb=9.59%); format: functional; details: time 2 day
B-cell [5] = test: Induction of DNA repair in mouse B cells assessed as change in ability of splenic cells to switch from IgM to IgG3 at 1 uM incubated for 4 days in the presence of LPS by flow cytometry analysis (Rvb=5.71%); format: functional; details: time 4 day
B-cell [6] = test: Induction of DNA repair in mouse B cells assessed as change in ability of splenic cells to switch from IgM to IgG3 at 10 uM incubated for 4 days in the presence of LPS by flow cytometry analysis (Rvb=5.71%); format: functional; details: time 4 day
B-cell [7] = test: Induction of DNA repair in mouse B cells assessed as change in ability of splenic cells to switch from IgM to IgE at 1 uM incubated for 3 days in the presence of LPS plus IL-4 by flow cytometry analysis (Rvb=1.97%); format: functional; details: time 3 day
B-cell [8] = test: Induction of DNA repair in mouse B cells assessed as change in ability of splenic cells to switch from IgM to IgE at 10 uM incubated for 3 days in the presence of LPS plus IL-4 by flow cytometry analysis (Rvb=1.97%); format: functional; details: time 3 day
[9] = biological target: L-type calcium channel (verapamil binding site) (Homo sapiens, UniProt O60840+Q01668+Q13698+Q13936); test: Inhibition of human L-type calcium channel verapamil binding site at 10 uM relative to control; format: protein assay
[10] = biological target: KV channel (voltage-gated potassium channel) (Homo sapiens, UniProt O43525+O43526+O95259+P16389+P17658+P22001+P22459+P22460+P48547+P51787+P56696+Q03721+Q09470+Q12809+Q14003+Q14721+Q16322+Q6PIU1+Q8NCM2+Q8TAE7+Q8TDN1+Q8TDN2+Q92953+Q96KK3+Q96L42+Q96PR1+Q96RP8+Q9BQ31+Q9H252+Q9H3M0+Q9NR82+Q9NS40+Q9NSA2+Q9NZV8+Q9UIX4+Q9UJ96+Q9UK17+Q9ULD8+Q9ULS6+Q9UQ05); test: Inhibition of human KV channel at 10 uM relative to control; format: protein assay
Adenosine receptor A1 = biological target: T1, Adenosine receptor A1 (Homo sapiens, UniProt P30542); test: Inhibition of human Adenosine receptor A1 assessed as inhibition constant
T1 sequence (P30542 whole entry): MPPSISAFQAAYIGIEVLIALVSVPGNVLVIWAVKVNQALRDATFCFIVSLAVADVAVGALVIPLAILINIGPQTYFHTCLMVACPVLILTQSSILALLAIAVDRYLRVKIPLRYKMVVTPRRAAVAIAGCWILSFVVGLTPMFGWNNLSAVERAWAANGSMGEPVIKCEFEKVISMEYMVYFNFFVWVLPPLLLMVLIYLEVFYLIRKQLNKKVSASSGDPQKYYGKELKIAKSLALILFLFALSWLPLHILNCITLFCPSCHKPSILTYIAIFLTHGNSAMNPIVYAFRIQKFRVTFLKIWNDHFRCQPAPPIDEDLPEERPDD

Adenosine receptor A2a = Adenosine receptor A2a (Homo sapiens, UniProt P29274); test: Inhibition of human Adenosine receptor A2a assessed as inhibition constant
Sequence of Adenosine receptor A2a (P29274 whole entry): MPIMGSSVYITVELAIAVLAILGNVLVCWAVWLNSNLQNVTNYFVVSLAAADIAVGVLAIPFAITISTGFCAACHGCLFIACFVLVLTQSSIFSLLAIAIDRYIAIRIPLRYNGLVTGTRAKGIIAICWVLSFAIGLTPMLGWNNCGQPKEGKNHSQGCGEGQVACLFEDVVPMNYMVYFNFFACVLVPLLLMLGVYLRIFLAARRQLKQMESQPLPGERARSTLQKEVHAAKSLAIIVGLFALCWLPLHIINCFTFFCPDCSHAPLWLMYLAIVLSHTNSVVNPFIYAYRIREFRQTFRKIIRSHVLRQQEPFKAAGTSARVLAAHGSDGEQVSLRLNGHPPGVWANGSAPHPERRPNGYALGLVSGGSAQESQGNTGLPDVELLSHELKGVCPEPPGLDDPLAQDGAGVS

Adenosine receptor A3 = biological target: T2, Adenosine receptor A3 (Homo sapiens, UniProt P0DMS8); test: Inhibition of human Adenosine receptor A3 assessed as inhibition constant
T2 sequence (P0DMS8 whole entry): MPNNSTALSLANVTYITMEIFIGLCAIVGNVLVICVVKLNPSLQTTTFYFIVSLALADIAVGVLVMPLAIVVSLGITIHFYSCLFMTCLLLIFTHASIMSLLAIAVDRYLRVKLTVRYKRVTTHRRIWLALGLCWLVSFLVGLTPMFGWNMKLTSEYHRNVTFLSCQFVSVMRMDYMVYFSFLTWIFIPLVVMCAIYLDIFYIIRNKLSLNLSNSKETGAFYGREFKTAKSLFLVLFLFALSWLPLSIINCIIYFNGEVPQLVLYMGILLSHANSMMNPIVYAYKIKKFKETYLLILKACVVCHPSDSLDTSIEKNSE

[11] = biological target: Sodium-dependent serotonin transporter (Homo sapiens, UniProt P31645); test: Inhibition of human 5-HT transporter assessed as inhibition constant
Sequence of Sodium-dependent serotonin transporter (P31645 whole entry): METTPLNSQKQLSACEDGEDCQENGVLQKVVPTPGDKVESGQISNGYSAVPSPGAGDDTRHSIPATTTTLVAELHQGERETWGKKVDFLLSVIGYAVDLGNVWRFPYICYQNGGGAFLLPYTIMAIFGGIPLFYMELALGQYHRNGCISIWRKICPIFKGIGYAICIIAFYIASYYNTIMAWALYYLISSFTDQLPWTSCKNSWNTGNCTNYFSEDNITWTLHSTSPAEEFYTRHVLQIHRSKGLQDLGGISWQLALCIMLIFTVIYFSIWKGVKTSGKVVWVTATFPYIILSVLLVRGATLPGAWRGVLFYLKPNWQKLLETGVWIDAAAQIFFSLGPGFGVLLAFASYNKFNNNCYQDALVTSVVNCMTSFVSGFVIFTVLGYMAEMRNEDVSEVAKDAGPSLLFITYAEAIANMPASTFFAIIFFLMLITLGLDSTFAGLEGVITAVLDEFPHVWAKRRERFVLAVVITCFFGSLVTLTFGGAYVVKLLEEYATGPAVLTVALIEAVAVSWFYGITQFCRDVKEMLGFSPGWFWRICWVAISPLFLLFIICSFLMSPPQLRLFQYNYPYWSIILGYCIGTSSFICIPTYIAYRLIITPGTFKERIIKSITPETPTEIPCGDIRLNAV

[12] = biological target: T3, 5-hydroxytryptamine receptor 1A (Homo sapiens, UniProt P08908); test: Inhibition of human 5-HT1A assessed as inhibition constant
T3 sequence (P08908 whole entry): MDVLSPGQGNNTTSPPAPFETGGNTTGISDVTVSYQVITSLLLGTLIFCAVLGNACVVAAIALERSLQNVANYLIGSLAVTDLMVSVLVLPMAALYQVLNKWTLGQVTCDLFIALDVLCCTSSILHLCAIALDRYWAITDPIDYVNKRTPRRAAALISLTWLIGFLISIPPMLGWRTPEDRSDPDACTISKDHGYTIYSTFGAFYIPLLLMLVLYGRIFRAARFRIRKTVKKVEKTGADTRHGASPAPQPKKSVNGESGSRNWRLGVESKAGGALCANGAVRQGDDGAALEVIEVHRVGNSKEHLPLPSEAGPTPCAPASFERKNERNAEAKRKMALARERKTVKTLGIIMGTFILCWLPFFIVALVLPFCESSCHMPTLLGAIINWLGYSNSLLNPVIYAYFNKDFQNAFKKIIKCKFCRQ

[13] = biological target: T4, 5-hydroxytryptamine receptor 2A (Homo sapiens, UniProt P28223); test: Inhibition of human 5-HT2A assessed as inhibition constant
T4 sequence (P28223 whole entry): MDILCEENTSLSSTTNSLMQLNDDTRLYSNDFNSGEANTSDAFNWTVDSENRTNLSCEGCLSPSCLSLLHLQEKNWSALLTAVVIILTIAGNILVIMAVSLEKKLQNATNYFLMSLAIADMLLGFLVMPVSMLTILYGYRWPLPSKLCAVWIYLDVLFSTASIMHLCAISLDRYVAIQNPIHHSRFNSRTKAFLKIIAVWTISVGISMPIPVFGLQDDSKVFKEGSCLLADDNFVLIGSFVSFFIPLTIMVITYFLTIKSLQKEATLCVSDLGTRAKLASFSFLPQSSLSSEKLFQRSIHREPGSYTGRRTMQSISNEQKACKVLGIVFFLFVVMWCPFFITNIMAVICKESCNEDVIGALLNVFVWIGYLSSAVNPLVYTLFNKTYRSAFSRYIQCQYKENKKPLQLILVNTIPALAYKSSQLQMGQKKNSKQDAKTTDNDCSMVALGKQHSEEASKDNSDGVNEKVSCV

[14] = Inhibition of human 5-HT3 receptor expressed in HEK293T cells at 10 uM relative to control; details: HEK-293T
[15] = biological target: T4, 5-hydroxytryptamine receptor 2A; test: Inhibition of human 5-HT2A receptor expressed in HEK293T cells assessed as inhibition constant; format: cell-based
[16] = biological target: Kappa-type opioid receptor (Homo sapiens, UniProt P41145); test: Inhibition of human kappa opioid receptor expressed in stable HEK cells assessed as inhibition constant; format: cell-based
Sequence of Kappa-type opioid receptor (P41145 whole entry): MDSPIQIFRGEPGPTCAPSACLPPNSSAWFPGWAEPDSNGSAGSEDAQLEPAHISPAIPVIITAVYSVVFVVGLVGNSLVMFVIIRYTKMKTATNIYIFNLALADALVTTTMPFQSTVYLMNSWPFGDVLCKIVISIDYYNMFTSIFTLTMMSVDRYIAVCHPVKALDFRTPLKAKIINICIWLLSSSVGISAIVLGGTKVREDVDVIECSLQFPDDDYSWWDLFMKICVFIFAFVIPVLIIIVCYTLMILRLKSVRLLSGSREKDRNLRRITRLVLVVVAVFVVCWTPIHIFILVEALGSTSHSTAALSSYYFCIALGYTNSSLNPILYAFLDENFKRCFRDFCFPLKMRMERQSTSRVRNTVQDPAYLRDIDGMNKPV

[17] = Inhibition of Rat GABAA assessed as inhibition constant in the presence of PBR

Sequence of Histone-lysine N-methyltransferase KMT5B (Q4FZB7 whole entry, the tested form may be a part): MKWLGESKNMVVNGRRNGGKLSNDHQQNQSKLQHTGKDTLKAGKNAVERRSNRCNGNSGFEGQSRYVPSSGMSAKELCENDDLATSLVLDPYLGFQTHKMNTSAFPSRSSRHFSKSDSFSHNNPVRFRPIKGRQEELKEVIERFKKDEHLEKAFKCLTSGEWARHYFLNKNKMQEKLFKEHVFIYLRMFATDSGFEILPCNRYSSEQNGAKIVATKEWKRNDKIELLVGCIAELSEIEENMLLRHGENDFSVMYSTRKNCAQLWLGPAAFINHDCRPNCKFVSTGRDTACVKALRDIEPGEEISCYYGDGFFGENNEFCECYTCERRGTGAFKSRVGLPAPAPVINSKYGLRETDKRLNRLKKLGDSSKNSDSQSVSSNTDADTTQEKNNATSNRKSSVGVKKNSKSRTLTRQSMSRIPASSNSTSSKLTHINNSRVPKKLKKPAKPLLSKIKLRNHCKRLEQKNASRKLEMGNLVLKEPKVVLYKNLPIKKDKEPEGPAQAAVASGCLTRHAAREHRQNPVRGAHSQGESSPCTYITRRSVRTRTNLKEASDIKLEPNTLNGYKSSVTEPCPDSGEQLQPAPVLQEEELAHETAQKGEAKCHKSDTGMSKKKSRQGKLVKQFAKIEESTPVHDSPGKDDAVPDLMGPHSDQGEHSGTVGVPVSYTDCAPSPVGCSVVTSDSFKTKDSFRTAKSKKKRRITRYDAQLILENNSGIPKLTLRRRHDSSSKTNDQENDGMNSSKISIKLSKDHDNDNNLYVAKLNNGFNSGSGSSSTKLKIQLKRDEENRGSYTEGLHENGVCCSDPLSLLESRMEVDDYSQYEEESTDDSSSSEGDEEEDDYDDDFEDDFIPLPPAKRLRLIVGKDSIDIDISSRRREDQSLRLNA

For O=C(c1nnc(NC2CCCC2)c2cc(Cl)c(Cl)cc12)N1CCC(O)CC1, the IC50 [1] was greater than 10 µM, the IC50 [2] was greater than 10 µM and the Activity (B-cell [3]) was 10.7%. It also gave an Activity (B-cell [4]) of 10.6%, an Activity (B-cell [5]) of 5.55% and an Activity (B-cell [6]) of 5.11%. For the same molecule, the Activity (B-cell [7]) was 2.45%, the Activity (B-cell [8]) was 1.94% and the inhibition at 10 µM [9] was 4%. It also gave an inhibition at 10 µM [10] of -5%, a Ki (Adenosine receptor A1) of 3.1 µM and a Ki (Adenosine receptor A2a) of 20 µM. It also gave a Ki (Adenosine receptor A3) of 13 µM, a Ki [11] of 3.9 µM and a Ki [12] greater than 10 µM. For the same molecule, the Ki [13] was 13 µM, the inhibition at 10 µM [14] was -5% and the Ki [15] was greater than 10 µM. It also gave a Ki [16] of 2.7 µM and a Ki [17] of 1.1 µM.

— ChEMBL document CHEMBL5649167, “The SUV4-20 inhibitor A-196 verifies a role for epigenetics in genomic integrity” (Nat Chem Biol, 2017)
